According to PubChem BioAssay (NCI):
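In this assay, cells in 96-well plates receive the compound at five concentrations for 48 hours. Endpoints are linearly interpolated between the surrounding concentrations. Abbreviation: GI50, concentration required for 50% inhibition of growth. The concentration for full growth arrest is given as TGI.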

Tests used:
Assay in all cases: DTP human tumour cell line panel, 48 h
NCI-H460 lung = test system: NCI-H460 lung
SK-MEL-2 melanoma = test system: SK-MEL-2 melanoma
M14 melanoma = test system: M14 melanoma
HL-60(TB) leukemia = test system: HL-60(TB) leukemia
HT29 colon = test system: HT29 colon
OVCAR-5 ovarian = test system: OVCAR-5 ovarian
SN12C renal = test system: SN12C renal
SNB-19 CNS = test system: SNB-19 CNS
MDA-MB-231 breast = test system: MDA-MB-231 breast
SR leukemia = test system: SR leukemia

SMILES	TGI (NCI-H460 lung) [µM]	TGI (SK-MEL-2 melanoma) [µM]	TGI (M14 melanoma) [µM]	TGI (HL-60(TB) leukemia) [µM]	TGI (HT29 colon) [µM]	TGI (OVCAR-5 ovarian) [µM]	TGI (SN12C renal) [µM]	GI50 (NCI-H460 lung) [µM]	GI50 (SN12C renal) [µM]	GI50 (SK-MEL-2 melanoma) [µM]	GI50 (M14 melanoma) [µM]	GI50 (SNB-19 CNS) [µM]	TGI (SNB-19 CNS) [µM]	GI50 (MDA-MB-231 breast) [µM]	TGI (MDA-MB-231 breast) [µM]	GI50 (HL-60(TB) leukemia) [µM]	GI50 (HT29 colon) [µM]	GI50 (OVCAR-5 ovarian) [µM]	TGI (SR leukemia) [µM]
C/C(CC(=O)NCCc1ccccc1)=N\NC(=O)C[n+]1ccccc1	> 100	> 100	> 100	> 100	> 100	> 100	–	–	–	–	–	–	–	–	–	–	–	–	–
O=c1c2cc(Br)cc(Br)c2nc(CCCl)n1CCO	> 100	> 100	> 100	> 100	> 100	> 100	> 100	–	–	–	–	–	–	–	–	–	–	–	–
CCn1c(SCc2ccc(C)cc2)nnc1-c1nn(-c2ccc(Cl)cc2Cl)c(-c2ccc(Cl)cc2)c1C	10.5	12.5	10.8	5.47	10.6	15.2	10.8	1.46	2.31	3.01	1.99	2.3	13.3	2.35	8.54	1.6	1.11	3.54	–
C1C[OH+]CC[OH+]CC[OH+]CC[OH+]CC[OH+]1.[Cl-].[V]	> 100	> 100	> 100	> 100	> 100	–	> 100	46.2	> 100	48.2	45.3	43.5	> 100	–	–	> 100	> 100	–	–
CC(CO)(CO)NCCCCn1ccc2c1C(=O)c1c(c(O)c3ccccc3c1O)C2=O	42.9	–	3.41	> 100	–	29.5	24.2	13.7	11.2	–	1.73	18.4	42.2	–	–	2.37	–	16	–
COc1ccc(OC)c2c(C(=O)O)c(Cc3ccccc3)ccc12	> 100	> 100	> 100	> 100	> 100	> 100	> 100	–	–	–	–	–	> 100	–	–	–	–	–	> 100
S=C1OC2CCCC[C@H]2O1 (stereo not given in full)	> 100	> 100	> 100	> 100	> 100	> 100	> 100	–	–	–	–	–	> 100	–	–	–	–	–	> 100
